Results from patent US8748428B2, “Use of a PKC inhibitor” (Novartis AG, priority 2010, dated 2014).

How the values were obtained:
IL-6 mRNA in HBL1 cells = test: IL-6 mRNA expression (Taqman); type: cell-based; conditions: HBL1, 24 hours, 10 nM to 10 uM
Text: (§1) Constitutive activation of the NFkB pathway is a molecular hallmark of ABC DLBCL cells and is required for their proliferation and survival. See Davis, R. E., et al., J Exp Med, 194(12), 1861-1874 (2001). To confirm that the growth inhibitory effect in response to PKC inhibition is mediated through modulation of NFkB pathway signaling, the expression of NFkB pathway genes were monitored in response to AEB071 treatment. The NFkB-pathway-induced cytokine IL-6 was used as a marker to study NFkB pathway modulation by PKC inhibitors. See Lam, L. T., et al., Blood 111(7):3701-13 (2008). To measure IL-6 mRNA levels, cells were plated in […] plates in 2 ml media at 2M/ml, then treated with DMSO or inhibitors from 10 nM to 10 uM (4-fold dilutions) for 24 hours. Total RNA was harvested using the RNeasy kit (Qiagen, #74104) and cDNA was made from 1 μg total RNA using the High Capacity cDNA kit (ABI, #4368814), according to manufacturer's protocols. Taqman probes (ABI: IL-6, Hs00174131_m1) were used with Gene Expression Master Mix (ABI, 4369510) to determine the amount of mRNA expression for IL-6 relative to an endogenous control gene (ABI: TBP, 4326322E) and the DMSO control using the delta-delta Ct method.

IL-6 mRNA in TMD8 cells = test: IL-6 mRNA expression (Taqman); type: cell-based; conditions: TMD8, 24 hours, 10 nM to 10 uM
Text: as §1

[1] = system: IL-6 mRNA in OCI-Ly10 cells; test: IL-6 mRNA expression (Taqman); type: cell-based; conditions: OCI-Ly10, 24 hours, 10 nM to 10 uM
Text: as §1

[2] = system: IL-6 mRNA in OCI-Ly3 cells; test: IL-6 mRNA expression (Taqman); type: cell-based; conditions: OCI-Ly3 (mutant CARD11), 24 hours, 10 nM to 10 uM
Text: as §1

[3] = system: IL-10 mRNA in TMD8 xenograft tumor; test: IL-10 mRNA expression in TMD8 xenograft tumor tissue (PD arm); type: in vivo, SCID-beige mice
Procedure: To confirm that the growth inhibitory effect in response to PKC inhibition is mediated through modulation of NFkB pathway signaling, the mRNA expression of IL-10 was monitored in response to AEB071 treatment in a PD arm of the in vivo study. Mice were implanted with TMD8 cells as described above, and when the tumor volume reached ˜160 mm^3, a single dose of 80 mg/kg AEB071 was administered. Tumor samples were harvested and snap frozen in liquid nitrogen, at 1 hour or 8 hours following the single does of AEB071. Tissue samples were homogenized and lysed in RLT buffer (Qiagen, #74104) with Reagent DX (Qiagen, 19088) using the TissueLyser II (Qiagen, 85300). Total RNA was harvested using the RNeasy kit (Qiagen, #74104) and cDNA was made from 1 μg total RNA using the High Capacity cDNA kit (ABI, #4368814), according to manufacturer's protocols. The IL-10 Taqman probe (ABI, Hs00174086_m1) was used with Gene Expression Master Mix (ABI, 4369510) to determine the amount of mRNA expression for IL-10 relative to an endogenous control gene (ABI: TBP, 4326322E) and the DMSO control using the delta-delta Ct method. […] Consistent with the in vitro kinetics of NFkB target gene downregulation by AEB071, IL-10 mRNA expression was unaffected after just 1 hour of treatment (see, FIG. 3A).

TMD8 xenograft = test: Subcutaneous TMD8 xenograft model, tumor growth; type: in vivo, SCID-beige mice; conditions: 80 mg/kg, tid, daily oral dosing; p<0.05 vs vehicle
Procedure: CD79 mutant ABC DLBCL were also shown to be sensitive to PKC inhibition in an in vivo setting by using a subcutaneous TMD8 xenograft model. Female SCID-beige mice were purchased from Charles River Labs (Wilmington Mass.) and housed in temperature and a humidity-controlled vivarium with a 12 hours light cycle and provided food and water ad libitum. Mice were implanted subcutaneously with 10×10^6 TMD8 cells in 50% matrigel (BD Biosciences, #354234) in the right dorsal axillary region, and animals were randomized into treatment groups when tumor sizes average ˜160 mm^3 (21 days post-implantation). AEB071 was formulated in 20% PEG400 and 4.5% 0.1 M HCl in D5W. Tumor volume was measured by callipering in 2 dimensions and calculated as (Length×Width^2)/2. Animals were callipered twice weekly during treatment to monitor effects on tumor growth. […] T/C percentage was calculated as the mean change in tumor volumes of treated animals divided by the mean change in tumor volumes of vehicle animals and multiplied by 100. Data are expressed as mean±SEM, and differences are considered statistically significant at p<0.05 by Student t-test.

Structure (SMILES): CN1CCN(c2nc(C3=C(c4c[nH]c5ccccc45)C(=O)NC3=O)c3ccccc3n2)CC1 [AEB071, 3-(1H-Indol-3-yl)-4-[2-(4-methylpiperazin-1-yl)quinazolin-4-yl]-1H-pyrrole-2,5-dione]
- IL-6 mRNA expression (IL-6 mRNA in HBL1 cells): dose-dependent decrease
- IL-6 mRNA expression (IL-6 mRNA in TMD8 cells): dose-dependent decrease
- IL-6 mRNA expression [1]: dose-dependent decrease
- IL-6 mRNA expression [2]: unaffected
- IL-10 mRNA expression in xenograft tumor tissue ([3]; 1 hour after single dose of 80 mg/kg): unaffected
- IL-10 mRNA expression in xenograft tumor tissue ([3]; 8 hours after single dose of 80 mg/kg): decrease
- T/C (tumor growth) (TMD8 xenograft): 17%
